From patent US20040097734A1, “Aryl- and heteroarylcarbonylpiperazines and their use for the treatment of benign and malignant oncoses” (priority 2002, published 2004) come the findings set out here.

≈ marks a conversion by molar mass, not a printed value. Where two headings read alike, the source gives them in different places.

Series [1] relates to human glioblastoma cell line SF-268. As to the kind of experiment: XTT proliferation assay, SF-268. In kind it is cell-based. The settings on record: SF-268 cells, 45 h incubation. From the text:
(§1) The substances according to the invention were investigated for their antiproliferative activity in a proliferation test on established tumor cell lines. The test used determines the cellular dehydrogenase activity and makes possible a determination of the cell vitality and indirectly the cell count. The cell lines used are the human cervical carcinoma cell line KB/HeLa, (ATCC CCL17), the ovarian adenocarcinoma cell line SKOV-3 (ATCC HTB77), the human glioblastoma cell line SF-268 (NCI 503138) and the lung carcinoma cell line NCI-H460 (NCI 503473). In addition, for the investigation of the cell cycle-specific action of the substance, an RKOp27 cell system was used (M. Schmidt et al. Oncogene 19(20):2423-9, 2000). RKO is a human colon carcinoma cell line, in which the cell cycle inhibitor p27^kip1 induced by means of the ecdysone expression system is expressed and can be led to a cell cycle arrest specifically in […]. A nonspecifically acting substance inhibits the proliferation independently of weather the RKO cell is or is not arrested in G1 or G2. Cell cycle-specific substances such as, for example, tubulin inhibitors are, however, only cytotoxic if cells are not arrested and the cell cycle is passed through. In table 1, the cytotoxic and/or growth-inhibiting activities of the compound described with/without expression of p27^kip1 are shown.
(§2) The adherently growing tumor cell lines KB/HeLa, SKOV-3, SF-268 and NCI-H460 were cultured under standard conditions in a fumigation incubator at 37° C., 5% CO2 and 95% atmospheric humidity. On experimental day 1, the cells are detached using trypsin/EDTA and pelleted by centrifugation. Subsequently, the cell pellet is resuspended in the respective culture medium at the corresponding cell count and reacted in a 96-well microtiter plate. The plates are then cultured overnight in the fumigation incubator. The test substances are prepared as 1 mg/ml stock solutions in DMSO and diluted to the appropriate concentrations on experimental day 2 using culture medium. The substances in culture medium are then added to the cells and incubated in the fumigation incubator for 45h. As a control, cells which are not treated with test substance are used. For the XTT assay, 1 mg/ml of XTT (sodium 3′-[1-(phenylaminocarbonyl)-3,4-tetrazolium]-bis(4-methoxy-6-nitro)benzenesulfonic acid) is dissolved in RPMI-1640 medium without Phenol Red. Additionally, a 0.383 mg/ml PMS (N-methyldibenzopyrazine methylsulfate) solution in phosphate-buffered saline solution (PBS) is prepared. On experimental day 4, 75 μl/well of XTT-PMS mixture is pipetted onto the cell plates which in the meantime have been incubated with the test substances for 45 h. For this, shortly before use, the XTT solution is mixed with the PMS solution in the ratio 50:1 (vol:vol). The cell plates are then incubated in the fumigation incubator for a further 3h and the optical density (OD490nm) is determined in a photometer. By means of the OD490nm determined, the percentage inhibition is calculated relative to the control and plotted semilogarithmically in the form of a concentration-action curve. The EC50 is calculated by means of a regression analysis from the concentration-action curve using the program Graphpad Prism.

For series [2], the system named is human cervical carcinoma cell line KB/HeLa. As to the kind of experiment: XTT proliferation assay, KB/HeLa. The class given is cell-based. The settings on record: KB/HeLa cells, 45 h incubation.
Description: as §1, §2

For series [3], the system named is lung carcinoma cell line NCI-H460. As to the kind of experiment: XTT proliferation assay, NCI-H460. The settings on record: Homo sapiens; NCI-H460 cells, 45 h incubation. The class given is cell-based.
Description: as §1, §2

Series [4] deals with bovine tubulin. As to the kind of experiment: Tubulin polymerization assay. In kind it is biochemical. The settings on record: bovine tubulin with 30% MAPs; average of two independent experiments. The method, then:
Selected substances were tested for inhibition of the polymerization of bovine tubulin in an in-vitro test. In this test, tubulin purified by cycles of polymerization and depolymerization is employed, which is polymerized by addition of GTP and warming. In Table 2, the EC50 values of the inhibition of polymerization of tubulin with 30% associated proteins (MAPs) and of MAP-free tubulin are indicated.
The assay is carried out based on the method of Bollag et. al. Lyophilized bovine tubulin (cytoskeleton, ML113 tubulin 30% MAPs, TL238 tubulin MAP free) is dissolved in a concentration of 2 mg/ml (ML113 in 80 mM PIPES, 0.5 mM EGTA, 2 mM MgCl2, pH6.9, 1 mM GTP) or 5 mg/ml (TL238 in 80 mM PIPES, 1 mM EGTA, 0.5 mM MgCl2, 20% (v:v) glycerol pH 6.9, 1 mM GTP). The test substances are diluted in 10% DMSO (v:v) and 5 μl of the dilutions are transferred to a 96-well microtiter plate (Nunc, half area plate). After addition of 45 μl of the tubulin solution, the polymerization is determined at 340 nm in a Spectramax 190 microtiter plate reader (Molecular devices) by means of a kinetics program at 30 sec intervals over a period of 20 min. The resulting area under curve values are used for the calculation of the inhibition with respect to the untreated control and plotted semilogarithmically in the form of a concentration-action curve. The EC50 is calculated by means of a regression analysis from the concentration-action curve using the program Graphpad Prism.

Series [5] has as its system RKOp27 human colon carcinoma cell line. As to the kind of experiment: Cell cycle analysis by means of the RKOp27 model (XTT). The settings on record: RKOp27, 45 h, RKOp27 cells, read-out: XTT proliferation assay, EC50, RKOP27. The class given is cell-based.
Description: as §1, §2
The assay is carried out in 96-well plates. […] By comparison of the activity on induced and noninduced cells, conclusions on the mechanism of action (cell cycle specificity) of the therapeutics can be drawn. […] are inoculated in approximately three-fold higher cell count, since division no longer takes place during the assay in comparison with uninduced cells (20000 cells/well induced, 6250 cells/well not induced). The controls are untreated cells (+/−induction). The induction is carried out with 3 μM muristerone A On the 1st day, the cells are exposed (+/− muristerone A) and incubated at 37° C. for 24h. […]

Series [6] deals with ovarian adenocarcinoma cell line SKOV-3. As to the kind of experiment: XTT proliferation assay, SKOV-3. The class given is cell-based. The settings on record: Homo sapiens, SK-OV-3; SKOV-3 cells, 45 h incubation; read-out: XTT proliferation assay, EC50, SKOV3.
Description: as §1, §2

Setting [7] is: p27kip1 induced with 3 μM muristerone A (arrested).
Setting [8] is: without expression of p27kip1 (not induced).

The compound `COc1cccc(N2CCN(C(=O)C3c4ccccc4-c4ccccc43)CC2)c1` [Compound 10, (9H-Fluoren-9-yl)-[4-(3-methoxyphenyl)piperazin-1-yl]methanone] gave a melting point of 162 to 163 °C. The EC50 in series [1] was determined as 0.094 µg/mL (≈ 0.244 µM). Besides, in series [2], the EC50 is 0.166 µg/mL (≈ 0.432 µM). The EC50 in series [3] worked out at 0.085 µg/mL (≈ 0.221 µM). The “Inhibition of tubulin polymerization, EC50, with 30% MAPs” value in series [4] was 1.18 µg/mL. In addition, the EC50 in series [5] (setting [7]) is above 3.16 µg/mL. In addition, the EC50 in series [5] (setting [8]) came to 0.082 µg/mL (≈ 0.213 µM). Also, in series [6], the EC50 was determined as 0.082 µg/mL (≈ 0.213 µM).
With `COc1cccc(N2CCN(C(=O)C3c4ccccc4Oc4ccccc43)CC2)c1` [Compound 13, [4-(3-Methoxyphenyl)piperazin-1-yl]-(9H-xanthen-9-yl)methanone], the melting point was 110 °C. The compound also showed an EC50 in series [1] of 0.408 µg/mL (≈ 1.02 µM). Moreover, in series [2], the EC50 is 0.628 µg/mL (≈ 1.57 µM). This compound also registered an EC50 in series [3] of 0.29 µg/mL (≈ 0.724 µM). Also, the “Inhibition of tubulin polymerization, EC50, with 30% MAPs” value in series [4] was determined as 0.73 µg/mL. The EC50 in series [5] (setting [7]) is above 3.16 µg/mL. Moreover, the EC50 in series [5] (setting [8]) turned out to be 0.193 µg/mL (≈ 0.482 µM). For the same compound, the EC50 in series [6] was 0.293 µg/mL (≈ 0.732 µM).
